Measured values as given in ChEMBL document CHEMBL5584362, “Sucurchalasins A and B, Sulfur-Containing Heterodimers of a Cytochalasan and a Macrolide from the Endophytic Fungus Aspergillus spelaeus GDGJ-286” (J Nat Prod, 2024).
≈ marks a conversion by molar mass, not a printed value. Calls of active or inactive are those of the source. The calls are words filed in the database; no cut-off is given here.

test system: A2780; test: Induction of apoptosis in human A2780 cells assessed as increase in late apoptotic cells measured after 48 hrs by Annexin V-FITC/PI staining based FACS analysis; assay type: functional, cell-based; conditions: dose 1-9 µM

| SMILES | Activity |
| --- | --- |
| C[C@H]1CCC/C=C/C(=O)c2c(O)cc(O)cc2CC(=O)O1 [DEHYDROCURVULARIN] | Dose-Dependent Effect |

test system: A2780; test: Induction of apoptosis in human A2780 cells assessed as chromatin fragmentation at 1 to 9 uM measured after 48 hrs by Hoechst 33258 staining based assay; assay type: functional, cell-based; conditions: dose 1-9 µM

| SMILES | Activity |
| --- | --- |
| C[C@H]1CCC/C=C/C(=O)c2c(O)cc(O)cc2CC(=O)O1 [DEHYDROCURVULARIN] | Active |

test system: Escherichia coli; test: Antibacterial activity against Escherichia coli measured after 20 to 45 mins by broth microdilution method; assay type: functional; conditions: time 20-45 min

| SMILES | MIC |
| --- | --- |
| C[C@H]1CCC/C=C/C(=O)c2c(O)cc(O)cc2CC(=O)O1 [DEHYDROCURVULARIN] | 25 µg/mL (≈ 86.1 µM) |

test system: Shigella dysenteriae; test: Antibacterial activity against Shigella dysenteriae measured after 20 to 45 mins by broth microdilution method; assay type: functional; conditions: time 20-45 min

| SMILES | MIC |
| --- | --- |
| C[C@H]1CCC/C=C/C(=O)c2c(O)cc(O)cc2CC(=O)O1 [DEHYDROCURVULARIN] | 6.3 µg/mL (≈ 21.7 µM) |

test system: A2780; test: Induction of apoptosis in human A2780 cells assessed as late apoptotic cells at 1 uM measured after 48 hrs by Annexin V-FITC/PI staining based FACS analysis (reference value: 2.32 to 2.4%); assay type: functional; conditions: not given

| SMILES | Activity |
| --- | --- |
| C[C@H]1CCC/C=C/C(=O)c2c(O)cc(O)cc2CC(=O)O1 [DEHYDROCURVULARIN] | 1.87% |

test system: A2780; test: Induction of apoptosis in human A2780 cells assessed as late apoptotic cells at 3 uM measured after 48 hrs by Annexin V-FITC/PI staining based FACS analysis (reference value: 2.32 to 2.4%); assay type: functional; conditions: not given

| SMILES | Activity |
| --- | --- |
| C[C@H]1CCC/C=C/C(=O)c2c(O)cc(O)cc2CC(=O)O1 [DEHYDROCURVULARIN] | 5.07% |

test system: Bacillus subtilis; test: Antibacterial activity against Bacillus subtilis measured after 20 to 45 mins by broth microdilution method; assay type: functional; conditions: time 20-45 min

| SMILES | MIC |
| --- | --- |
| C[C@H]1CCC/C=C/C(=O)c2c(O)cc(O)cc2CC(=O)O1 [DEHYDROCURVULARIN] | 3.1 µg/mL (≈ 10.7 µM) |

test system: A2780; test: Induction of apoptosis in human A2780 cells assessed as necrotic cells at 9 uM measured after 48 hrs by Annexin V-FITC/PI staining based FACS analysis (reference value: 1.34 to 3.3%); assay type: functional; conditions: not given

| SMILES | Activity |
| --- | --- |
| C[C@H]1CCC/C=C/C(=O)c2c(O)cc(O)cc2CC(=O)O1 [DEHYDROCURVULARIN] | 2.11% |

test system: A2780; test: Induction of apoptosis in human A2780 cells assessed as necrotic cells at 1 uM measured after 48 hrs by Annexin V-FITC/PI staining based FACS analysis (reference value: 1.34 to 3.3%); assay type: functional; conditions: not given

| SMILES | Activity |
| --- | --- |
| C[C@H]1CCC/C=C/C(=O)c2c(O)cc(O)cc2CC(=O)O1 [DEHYDROCURVULARIN] | 1.68% |

test system: A2780; test: Induction of apoptosis in human A2780 cells assessed as early apoptotic cells at 9 uM measured after 48 hrs by Annexin V-FITC/PI staining based FACS analysis (reference value: 1.68 to 1.9%); assay type: functional; conditions: not given

| SMILES | Activity |
| --- | --- |
| C[C@H]1CCC/C=C/C(=O)c2c(O)cc(O)cc2CC(=O)O1 [DEHYDROCURVULARIN] | 51.6% |

test system: A2780; test: Induction of apoptosis in human A2780 cells assessed as viable cells at 1 uM measured after 48 hrs by Annexin V-FITC/PI staining based FACS analysis (reference value: 92.6 to 92.8%); assay type: functional; conditions: read-out: Activity

| SMILES | viability at 1 µM |
| --- | --- |
| C[C@H]1CCC/C=C/C(=O)c2c(O)cc(O)cc2CC(=O)O1 [DEHYDROCURVULARIN] | 94.2% |

test system: A2780; test: Induction of apoptosis in human A2780 cells assessed as early apoptotic cells at 3 uM measured after 48 hrs by Annexin V-FITC/PI staining based FACS analysis (reference value: 1.68 to 1.9%); assay type: functional; conditions: not given

| SMILES | Activity |
| --- | --- |
| C[C@H]1CCC/C=C/C(=O)c2c(O)cc(O)cc2CC(=O)O1 [DEHYDROCURVULARIN] | 11.1% |

test system: A2780; test: Induction of apoptosis in human A2780 cells assessed as necrotic cells at 3 uM measured after 48 hrs by Annexin V-FITC/PI staining based FACS analysis (reference value: 1.34 to 3.3%); assay type: functional; conditions: not given

| SMILES | Activity |
| --- | --- |
| C[C@H]1CCC/C=C/C(=O)c2c(O)cc(O)cc2CC(=O)O1 [DEHYDROCURVULARIN] | 2.09% |

test system: A2780; test: Induction of apoptosis in human A2780 cells assessed as viable cells at 3 uM measured after 48 hrs by Annexin V-FITC/PI staining based FACS analysis (reference value: 92.6 to 92.8%); assay type: functional; conditions: read-out: Activity

| SMILES | viability at 3 µM |
| --- | --- |
| C[C@H]1CCC/C=C/C(=O)c2c(O)cc(O)cc2CC(=O)O1 [DEHYDROCURVULARIN] | 80.8% |

test system: Staphylococcus aureus; test: Antibacterial activity against Staphylococcus aureus at 25 ug/ml measured after 20 to 45 mins by broth microdilution method; assay type: functional, organism-based; conditions: dose 25.0 µg/ml, time 20-45 min

| SMILES | Activity |
| --- | --- |
| C[C@H]1CCC/C=C/C(=O)c2c(O)cc(O)cc2CC(=O)O1 [DEHYDROCURVULARIN] | inactive |

test system: Enterococcus faecalis; test: Antibacterial activity against Enterococcus faecalis measured after 20 to 45 mins by broth microdilution method; assay type: functional; conditions: time 20-45 min

| SMILES | MIC |
| --- | --- |
| C[C@H]1CCC/C=C/C(=O)c2c(O)cc(O)cc2CC(=O)O1 [DEHYDROCURVULARIN] | 13 µg/mL (≈ 44.8 µM) |

test system: A2780; test: Induction of apoptosis in human A2780 cells assessed as late apoptotic cells at 9 uM measured after 48 hrs by Annexin V-FITC/PI staining based FACS analysis (reference value: 2.32 to 2.4%); assay type: functional; conditions: not given

| SMILES | Activity |
| --- | --- |
| C[C@H]1CCC/C=C/C(=O)c2c(O)cc(O)cc2CC(=O)O1 [DEHYDROCURVULARIN] | 12.2% |

test system: HeLa; test: Cytotoxicity against human HeLa cells by MTT assay; assay type: functional, cell-based; conditions: not given

| SMILES | IC50 |
| --- | --- |
| C[C@H]1CCC/C=C/C(=O)c2c(O)cc(O)cc2CC(=O)O1 [DEHYDROCURVULARIN] | 7.9 µM |

test system: Salmonella typhi; test: Antibacterial activity against Salmonella typhi at 25 ug/ml measured after 20 to 45 mins by broth microdilution method; assay type: functional, organism-based; conditions: Salmonella enterica subsp. enterica serovar Typhi; dose 25.0 µg/ml, time 20-45 min

| SMILES | Activity |
| --- | --- |
| C[C@H]1CCC/C=C/C(=O)c2c(O)cc(O)cc2CC(=O)O1 [DEHYDROCURVULARIN] | inactive |

test system: A2780; test: Induction of apoptosis in human A2780 cells assessed as viable cells at 9 uM measured after 48 hrs by Annexin V-FITC/PI staining based FACS analysis (reference value: 92.6 to 92.8%); assay type: functional; conditions: read-out: Activity

| SMILES | viability at 9 µM |
| --- | --- |
| C[C@H]1CCC/C=C/C(=O)c2c(O)cc(O)cc2CC(=O)O1 [DEHYDROCURVULARIN] | 34.1% |

test system: A2780; test: Cytotoxicity against human A2780 cells by MTT assay; assay type: functional, cell-based; conditions: not given

| SMILES | IC50 |
| --- | --- |
| C[C@H]1CCC/C=C/C(=O)c2c(O)cc(O)cc2CC(=O)O1 [DEHYDROCURVULARIN] | 4.3 µM |

test system: A2780; test: Induction of apoptosis in human A2780 cells assessed as chromatin condensation at 1 to 9 uM measured after 48 hrs by Hoechst 33258 staining based assay; assay type: functional, cell-based; conditions: dose 1-9 µM

| SMILES | Activity |
| --- | --- |
| C[C@H]1CCC/C=C/C(=O)c2c(O)cc(O)cc2CC(=O)O1 [DEHYDROCURVULARIN] | Active |

test system: A2780; test: Induction of apoptosis in human A2780 cells assessed as early apoptotic cells at 1 uM measured after 48 hrs by Annexin V-FITC/PI staining based FACS analysis (reference value: 1.68 to 1.9%); assay type: functional; conditions: not given

| SMILES | Activity |
| --- | --- |
| C[C@H]1CCC/C=C/C(=O)c2c(O)cc(O)cc2CC(=O)O1 [DEHYDROCURVULARIN] | 2.2% |

test system: SK-OV-3; test: Cytotoxicity against human SK-OV-3 cells by MTT assay; assay type: functional, cell-based; conditions: not given

| SMILES | IC50 |
| --- | --- |
| C[C@H]1CCC/C=C/C(=O)c2c(O)cc(O)cc2CC(=O)O1 [DEHYDROCURVULARIN] | 20 µM |

test system: HepG2; test: Cytotoxicity against human HepG2 cells by MTT assay; assay type: functional, cell-based; conditions: not given

| SMILES | IC50 |
| --- | --- |
| C[C@H]1CCC/C=C/C(=O)c2c(O)cc(O)cc2CC(=O)O1 [DEHYDROCURVULARIN] | 12 µM |

test system: Vibrio parahaemolyticus; test: Antibacterial activity against Vibrio parahaemolyticus measured after 20 to 45 mins by broth microdilution method; assay type: functional; conditions: time 20-45 min

| SMILES | MIC |
| --- | --- |
| C[C@H]1CCC/C=C/C(=O)c2c(O)cc(O)cc2CC(=O)O1 [DEHYDROCURVULARIN] | 25 µg/mL (≈ 86.1 µM) |

test system: A2780; test: Induction of apoptosis in human A2780 cells assessed as increase in early apoptotic cells measured after 48 hrs by Annexin V-FITC/PI staining based FACS analysis; assay type: functional, cell-based; conditions: dose 1-9 µM

| SMILES | Activity |
| --- | --- |
| C[C@H]1CCC/C=C/C(=O)c2c(O)cc(O)cc2CC(=O)O1 [DEHYDROCURVULARIN] | Dose-Dependent Effect |
